Consider 2 compounds from patent US8901146B2, “Aminoalkylpyrimidine derivatives as histamine H4 receptor antagonists” (Medicis Pharmaceutical Corporation, priority 2009, dated 2014).

The test system of the test is Male BALB/c mice. Nature of the test: Murine atopic dermatitis model by multiple oxazolone challenges. It counts as in vivo. The conditions noted are these: result in words. How it is done:
Murine Atopic Dermatitis Model by Multiple Oxazolone Challenges
Method: Male BALB/c mice (n=5-7 per group) were sensitised on Day 1 by the topical application of 50 μL of 1% oxazolone in acetone/olive oil (4:1) on the abdominal skin. On days 8, 10, 12, 15, 17, 19, 22, 24 and 26, animals received repeated challenges with 25 μL of 0.2% oxazolone, applied topically on the inner side of their right ear. On days 8-26, 25 μL of a solution of the test compound (prepared by dissolving compound in acetone/olive oil 4:1 and heating) at the desired concentration were administered on the outer side of the right ears. On days 12, 19 and 26, right ear thickness was determined with a calliper one hour after oxazolone application.

For `CNC1CN(c2cc(CNC3CCCC3)nc(N)n2)C1` [Example 1t, 4-((Cyclopentylamino)methyl)-6-(3-(methylamino)azetidin-1-yl)pyrimidin-2-amine], the “in vivo activity in the atopic dermatitis model of example 10” value is on record as “outstanding in vivo activity”. In the case of `CNC1CN(c2cc(CNCC3CC3)nc(N)n2)C1` [Example 1b, 4-((Cyclopropylmethylamino)methyl)-6-(3-(methylamino)azetidin-1-yl)pyrimidin-2-amine] it was “outstanding in vivo activity”.
